In patent publication US9630956B2, “Compounds useful as inhibitors of ATR kinase” (Vertex Pharmaceuticals Incorporated, priority 2010, dated 2017) one finds Ki data, which are given here for 24 compounds.

Each structure is given as a SMILES string. A value given as a limit tells only on which side of the number the result lay.

full-length ATR, sequence (Q13535 whole entry): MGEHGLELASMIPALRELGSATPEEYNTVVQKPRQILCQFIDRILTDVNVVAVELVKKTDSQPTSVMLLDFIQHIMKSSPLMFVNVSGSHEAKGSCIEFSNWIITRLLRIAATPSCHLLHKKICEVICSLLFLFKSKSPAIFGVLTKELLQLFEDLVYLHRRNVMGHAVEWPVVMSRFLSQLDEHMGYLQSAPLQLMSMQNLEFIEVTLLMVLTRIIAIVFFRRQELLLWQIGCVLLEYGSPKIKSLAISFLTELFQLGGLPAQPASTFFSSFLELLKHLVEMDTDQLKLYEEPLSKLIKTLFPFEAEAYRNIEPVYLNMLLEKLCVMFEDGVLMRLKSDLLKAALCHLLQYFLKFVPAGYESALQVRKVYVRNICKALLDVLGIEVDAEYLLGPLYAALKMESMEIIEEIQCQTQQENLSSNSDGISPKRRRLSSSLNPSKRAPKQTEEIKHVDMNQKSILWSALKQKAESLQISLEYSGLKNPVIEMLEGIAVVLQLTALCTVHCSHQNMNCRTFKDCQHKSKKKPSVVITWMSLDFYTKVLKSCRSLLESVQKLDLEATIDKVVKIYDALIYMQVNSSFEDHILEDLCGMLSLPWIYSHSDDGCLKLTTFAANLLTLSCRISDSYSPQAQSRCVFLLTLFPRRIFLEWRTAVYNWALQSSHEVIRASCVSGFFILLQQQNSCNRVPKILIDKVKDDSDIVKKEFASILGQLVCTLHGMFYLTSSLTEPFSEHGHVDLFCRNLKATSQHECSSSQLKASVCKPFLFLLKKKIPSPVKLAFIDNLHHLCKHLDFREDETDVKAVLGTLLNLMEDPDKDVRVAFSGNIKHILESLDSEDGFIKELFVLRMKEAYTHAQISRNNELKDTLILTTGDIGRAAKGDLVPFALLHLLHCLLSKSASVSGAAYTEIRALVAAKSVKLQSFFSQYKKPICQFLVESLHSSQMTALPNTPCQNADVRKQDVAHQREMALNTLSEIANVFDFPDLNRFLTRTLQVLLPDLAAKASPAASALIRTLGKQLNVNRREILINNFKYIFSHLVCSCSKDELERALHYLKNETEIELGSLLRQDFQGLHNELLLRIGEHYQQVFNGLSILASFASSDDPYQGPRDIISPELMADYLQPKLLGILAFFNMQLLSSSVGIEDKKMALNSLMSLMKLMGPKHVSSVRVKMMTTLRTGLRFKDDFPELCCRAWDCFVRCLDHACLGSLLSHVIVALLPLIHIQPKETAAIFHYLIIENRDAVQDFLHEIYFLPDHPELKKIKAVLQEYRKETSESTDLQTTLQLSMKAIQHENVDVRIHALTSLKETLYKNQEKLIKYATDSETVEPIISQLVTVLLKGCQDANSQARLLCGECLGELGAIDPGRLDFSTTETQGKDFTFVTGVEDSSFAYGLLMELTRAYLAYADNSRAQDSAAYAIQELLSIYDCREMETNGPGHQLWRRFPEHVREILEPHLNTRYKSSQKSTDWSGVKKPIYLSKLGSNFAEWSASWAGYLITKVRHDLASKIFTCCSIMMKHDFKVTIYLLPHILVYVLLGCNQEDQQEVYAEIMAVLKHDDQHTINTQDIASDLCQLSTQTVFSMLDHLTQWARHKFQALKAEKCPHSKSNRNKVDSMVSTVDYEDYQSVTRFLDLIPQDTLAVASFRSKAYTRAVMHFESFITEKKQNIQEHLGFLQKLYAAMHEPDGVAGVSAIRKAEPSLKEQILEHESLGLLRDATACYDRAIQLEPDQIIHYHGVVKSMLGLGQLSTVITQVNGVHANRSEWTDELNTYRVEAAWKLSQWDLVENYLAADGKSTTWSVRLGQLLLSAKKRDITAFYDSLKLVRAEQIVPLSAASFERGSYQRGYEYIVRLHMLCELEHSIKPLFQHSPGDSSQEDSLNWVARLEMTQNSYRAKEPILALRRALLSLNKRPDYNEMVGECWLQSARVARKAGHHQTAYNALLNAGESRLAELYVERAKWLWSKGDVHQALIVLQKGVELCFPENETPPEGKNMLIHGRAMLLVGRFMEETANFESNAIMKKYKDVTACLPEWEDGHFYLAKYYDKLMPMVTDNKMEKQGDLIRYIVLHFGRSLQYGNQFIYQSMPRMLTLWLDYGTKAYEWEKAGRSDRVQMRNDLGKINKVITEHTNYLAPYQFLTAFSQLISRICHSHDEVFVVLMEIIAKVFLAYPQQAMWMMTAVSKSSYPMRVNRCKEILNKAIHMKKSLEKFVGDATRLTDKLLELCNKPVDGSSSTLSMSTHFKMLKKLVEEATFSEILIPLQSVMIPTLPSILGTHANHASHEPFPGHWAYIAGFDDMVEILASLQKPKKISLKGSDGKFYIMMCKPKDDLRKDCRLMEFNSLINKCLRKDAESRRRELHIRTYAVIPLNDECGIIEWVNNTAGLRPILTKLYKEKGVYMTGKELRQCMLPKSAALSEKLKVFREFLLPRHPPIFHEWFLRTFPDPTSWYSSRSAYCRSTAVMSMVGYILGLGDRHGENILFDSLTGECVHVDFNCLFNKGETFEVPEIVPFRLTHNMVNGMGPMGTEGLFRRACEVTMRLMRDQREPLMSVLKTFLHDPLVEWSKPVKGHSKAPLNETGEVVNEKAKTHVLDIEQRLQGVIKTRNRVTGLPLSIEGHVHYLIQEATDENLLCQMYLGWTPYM

One assay addresses full-length ATR (Homo sapiens (Human), UniProt Q13535). Description: ATR Inhibition Assay (radioactive-phosphate incorporation). Format: biochemical.
Details: not given
On the procedure: Compounds were screened for their ability to inhibit ATR kinase using a radioactive-phosphate incorporation assay. Assays were carried out in a mixture of 50 mM Tris/HCl (pH 7.5), 10 mM MgCl2 and 1 mM DTT. Final substrate concentrations were 10 μM [γ-33P]ATP (3 mCi 33P ATP/mmol ATP, Perkin Elmer) and 800 μM target peptide ([…]).
Assays were carried out at 25° C. in the presence of 5 nM full-length ATR. An assay stock buffer solution was prepared containing all of the reagents listed above, with the exception of ATP and the test compound of interest. 13.5 μL of the stock solution was placed in a 96 well plate followed by addition of 2 μL of DMSO stock containing serial dilutions of the test compound (typically starting from a final concentration of 15 μM with 3-fold serial dilutions) in duplicate (final DMSO concentration 7%). The plate was pre-incubated for 10 minutes at 25° C. and the reaction initiated by addition of 15 μL [γ-33P]ATP (final concentration 10 μM).
The reaction was stopped after 24 hours by the addition of 30 μL 0.1 M phosphoric acid containing 2 mM ATP. A multiscreen phosphocellulose filter 96-well plate (Millipore, Cat no. MAPHNOB50) was pretreated with 100 μL 0.2M phosphoric acid prior to the addition of 45 μL of the stopped assay mixture. The plate was washed with 5×200 μL 0.2M phosphoric acid. After drying, 100 μL Optiphase ‘SuperMix’ liquid scintillation cocktail (Perkin Elmer) was added to the well prior to scintillation counting (1450 Microbeta Liquid Scintillation Counter, Wallac).
After removing mean background values for all of the data points, Ki(app) data were calculated from non-linear regression analysis of the initial rate data using the Prism software package (GraphPad Prism version 3.0cx for Macintosh, GraphPad Software, San Diego Calif., USA).
Below is a chart showing the ATR Inhibition Ki values of compounds of the disclosure.
Regarding `CCN(CC)C(=O)C(C)n1cc(-c2cnc(N)c(-c3cc(-c4ccc(CNC)cc4)no3)n2)ccc1=O` (stereo not drawn) [Compound I-101, 2-(5-(5-amino-6-(3-(4-((methylamino)methyl)phenyl)isoxazol-5-yl)pyrazin-2-yl)-2-oxopyridin-1(2H)-yl)-N,N-diethylpropanamide], the Ki fell in the range of 5 to 50 nM.

Still in this assay, the particulars now being: ATR Inhibition Ki(app); 10 μM ATP, 800 μM target peptide, 5 nM full-length ATR, 25° C.
In the case of `CNCc1ccc(-c2cc(-c3nc(-c4ccc(=O)n(C(C)C(=O)NC)c4)cnc3N)on2)cc1` (stereo not drawn) [Compound I-91], the Ki is ≤ 5 nM.
Same read-out and setting: under `CNCc1ccc(-c2cc(-c3nc(-c4ccc(=O)n(CCOC)c4)cnc3N)on2)cc1` [Compound I-95] stands ≤ 5 nM; under `CNCc1ccc(-c2cc(-c3nc(-c4ccc(=O)n(CC(N)=O)c4)cnc3N)on2)cc1` [Compound I-98], ≤ 5 nM.
On the same count and under the same terms, under `CC(C#N)n1cc(-c2cnc(N)c(-c3cc(-c4ccc(CNC5CC5)cc4)no3)n2)ccc1=O` (stereo not drawn) [Compound I-99] stands ≤ 5 nM; under `CNCc1ccc(-c2cc(-c3nc(-c4c[nH]c(=O)c(C(C)C)c4)cnc3N)on2)cc1` [Compound I-100], ≤ 5 nM; under `CC(N)c1cccc(-c2cc(-c3nc(-c4ccc(=O)[nH]c4)cnc3N)on2)c1` (stereo not drawn) [Compound I-103], ≤ 5 nM.
On the same count and under the same terms, as for `CC(N)c1cccc(-c2cc(-c3nc(-c4ccc(=O)n(C(C)C(N)=O)c4)cnc3N)on2)c1` (stereo not drawn) [Compound I-104], the figure is ≤ 5 nM.
As for `CNCc1ccc(-c2cc(-c3nc(-c4ccc(=O)n(C)c4)cnc3N)on2)cc1` [Compound I-108], the Ki is ≤ 5 nM.
The same measure, in the same setting: under `CCCn1cc(-c2cnc(N)c(-c3cc(-c4ccc(CNC)cc4)no3)n2)ccc1=O` [Compound I-109] stands ≤ 5 nM.
Turning to `Nc1ncc(-c2ccc(=O)[nH]c2)nc1-c1cc(-c2ccc(CNC3CC3)cc2)no1` [Compound I-111, 5-[5-amino-6-[3-[4-[(cyclopropylamino)methyl]phenyl]isoxazol-5-yl]pyrazin-2-yl]-1H-pyridin-2-one], the Ki is ≤ 5 nM.
As for `Nc1ncc(-c2c[nH]c(=O)c(Cl)c2)nc1-c1cc(-c2ccc(CNC3CC3)cc2)no1` [Compound I-112], the Ki was ≤ 5 nM.
Still for that read-out and setting: as for `CNCc1ccc(-c2cc(-c3nc(-c4ccc(=O)n(CC5(C)COC5)c4)cnc3N)on2)cc1` [Compound I-113], the figure is ≤ 5 nM; as for `CNCc1ccc(-c2cc(-c3nc(-c4c[nH]c(=O)c(C5=CCCCC5)c4)cnc3N)on2)cc1` [Compound I-114], ≤ 5 nM.
Regarding `CNCc1ccc(-c2cc(-c3nc(-c4c[nH]c(=O)c(C5CCCCC5)c4)cnc3N)on2)cc1` [Compound I-115], the Ki was ≤ 5 nM.
`CNCc1ccc(-c2cc(-c3nc(-c4ccc(=O)n(C(CO)CO)c4)cnc3N)on2)cc1` [Compound I-117]: the Ki was ≤ 5 nM.
With `CNCc1ccc(-c2cc(-c3nc(-c4ccc(=O)n(C(C)C)c4)cnc3N)on2)c(OC(C)C)c1` [Compound I-118], the Ki is ≤ 5 nM.
As for `CNCc1ccc(-c2cc(-c3nc(-c4cc(F)c(=O)n(C(C)C)c4)cnc3N)on2)cc1` [Compound I-121], the Ki lay within 5 to 50 nM.
On the same count and under the same terms, as for `CCC(C#N)(CC)n1cc(-c2cnc(N)c(-c3cc(-c4ccc(CNC5CC5)cc4F)no3)n2)ccc1=O` [Compound I-136], the figure is ≤ 5 nM.
Regarding `CCC(CC)n1cc(-c2cnc(N)c(-c3cc(-c4cccc(C5(N)CC5)c4)no3)n2)ccc1=O` [Compound I-137], the Ki is 5 to 50 nM.
With `CCC(CC)n1cc(-c2cnc(N)c(-c3cc(-c4ccc(F)c(C(C)N)c4)no3)n2)ccc1=O` (stereo not drawn) [Compound I-141], the Ki was ≤ 5 nM.
Regarding `CCC(CC)n1cc(-c2cnc(N)c(-c3cc(-c4cccc(C(C)N)c4F)no3)n2)ccc1=O` (stereo not drawn) [Compound I-142], the Ki is ≤ 5 nM.
On to `CC(C)(C#N)n1cc(-c2cnc(N)c(-c3cc(-c4ccc(CNC5CC5)cc4)no3)n2)ccc1=O` [Compound I-144], for which the Ki is ≤ 5 nM.
As for `CCC(CC)n1cc(-c2cnc(N)c(-c3cc(-c4cccc(C(C)(C)N)c4)no3)n2)ccc1=O` [Compound I-146], the Ki is ≤ 5 nM.
